Measured values: patent publication US20030203373A1 (priority 2002, published 2003)
pIC50: −log10 of the molar value. Where “and” joins values, the source holds several entries; their conditions need not be identical. Identical values can stand only once. Ends that are not written are not given here.

Target: T1, ACE from pig kidney (Sus scrofa, UniProt F1RRW5)
T1 construct: 1 mU ACE from pig kidney (EC 3.4.15.1 (Sigma)); purchased Sigma; host or cells: pig kidney (tissue-derived enzyme)
T1 sequence (F1RRW5 34-1309): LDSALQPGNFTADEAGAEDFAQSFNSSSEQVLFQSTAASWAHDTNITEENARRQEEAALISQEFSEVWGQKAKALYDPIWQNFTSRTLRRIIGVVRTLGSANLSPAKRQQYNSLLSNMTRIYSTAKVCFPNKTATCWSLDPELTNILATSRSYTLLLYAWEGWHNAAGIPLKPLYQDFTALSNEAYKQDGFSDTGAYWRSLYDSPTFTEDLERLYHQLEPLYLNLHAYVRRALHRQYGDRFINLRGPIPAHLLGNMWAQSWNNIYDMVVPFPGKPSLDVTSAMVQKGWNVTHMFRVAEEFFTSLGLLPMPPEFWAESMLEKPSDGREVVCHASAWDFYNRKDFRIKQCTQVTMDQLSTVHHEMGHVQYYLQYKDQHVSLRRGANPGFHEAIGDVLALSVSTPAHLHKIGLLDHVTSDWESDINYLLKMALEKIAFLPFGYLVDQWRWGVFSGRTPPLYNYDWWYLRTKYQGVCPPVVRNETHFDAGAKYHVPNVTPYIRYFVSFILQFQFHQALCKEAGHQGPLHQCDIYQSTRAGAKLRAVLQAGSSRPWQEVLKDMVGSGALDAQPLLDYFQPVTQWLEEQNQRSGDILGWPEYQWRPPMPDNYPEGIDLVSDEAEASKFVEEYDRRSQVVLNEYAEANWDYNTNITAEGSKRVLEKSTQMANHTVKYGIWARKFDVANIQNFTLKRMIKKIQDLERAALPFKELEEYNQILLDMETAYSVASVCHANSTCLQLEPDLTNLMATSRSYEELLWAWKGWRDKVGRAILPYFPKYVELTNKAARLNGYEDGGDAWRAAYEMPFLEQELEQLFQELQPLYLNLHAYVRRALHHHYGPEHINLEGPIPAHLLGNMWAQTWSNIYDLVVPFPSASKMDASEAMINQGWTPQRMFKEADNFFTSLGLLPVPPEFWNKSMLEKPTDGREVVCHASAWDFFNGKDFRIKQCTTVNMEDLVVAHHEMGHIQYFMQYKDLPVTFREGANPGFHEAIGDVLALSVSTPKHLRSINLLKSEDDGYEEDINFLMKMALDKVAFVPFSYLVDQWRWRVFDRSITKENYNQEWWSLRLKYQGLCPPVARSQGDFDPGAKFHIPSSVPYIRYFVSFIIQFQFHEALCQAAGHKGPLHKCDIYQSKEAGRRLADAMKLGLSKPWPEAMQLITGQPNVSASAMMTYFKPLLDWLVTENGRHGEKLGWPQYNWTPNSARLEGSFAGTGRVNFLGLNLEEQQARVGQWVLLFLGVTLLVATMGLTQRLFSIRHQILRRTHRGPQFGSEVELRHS
Assay: biochemical
Assay type: biochemical
Settings: for pIC50: ACE from pig kidney, determined graphically, read-out: IC50-value (ACE inhibition)
From the text: These peptides were investigated for their inhibitory effect using an in vitro-ACE-inhibitor-assay with an angiotensin-converting-enzyme derived from pig kidney. Hippuryl-histidyl-leucin was used as a substrate. […] A concrete experimental description is given below.
The principle of the ACE-inhibition-assay was established by Chejung, H. S., Cushman, D. W.: “Inhibition of homogenous angiotensin converting enzyme of rabbit lung by synthetic venom peptides of Bothrops jararaca.” in Biochimica et Biophysica Acta 293, 451-563 (1973).
The assay was performed in 96 well HTRF-plates (Packard). The concentrations used for each well were:
1 mU ACE from pig kidney (EC 3.4.15.1 (Sigma)) in 30 μl of assay buffer (25 mM HEPES; 0,3 M NaCl, pH 8,2) and 20 μl inhibitor dissolved in assay buffer (0,35-200 μM). The reaction was started by adding 50 μl of 2 mM hippuryl-histidyl-leucin (Sigma) in assay buffer. The reaction was performed at room temperature (22° C.) for 30 minutes and terminated by adding 50 μl of 2 M NaOH. Afterwards 50 μl of 0,5% ortho-phtalaldehyd (Sigma) in methanol were added, 5 minutes later followed by 50 μl of 2,5 M HCl-solution to stabilize the developed fluorescence product.
The results were used to calculate the % inhibition. The IC50-values were determined graphically from a curve showing the dose-reaction ratio.
In order to minimize errors due to time-dependent differences, all pipetting steps were performed in a precise time schedule.

[1] = inhibitor 0.39 μM, replicates A-D
[2] = inhibitor 0.39 μM, replicates A-D, 0.39 µM
[3] = inhibitor 0.78125 μM, replicates A-D
[4] = inhibitor 0.78125 μM, replicates A-D, 0.78125 µM
[5] = inhibitor 1.5625 μM, replicates A-D
[6] = inhibitor 1.5625 μM, replicates A-D, 1.5625 µM
[7] = inhibitor 3.125 μM, replicates A-D
[8] = inhibitor 3.125 μM, replicates A-D, 3.125 µM
[9] = inhibitor 6.25 μM, replicates A-D
[10] = inhibitor 6.25 μM, replicates A-D, 6.25 µM
[11] = inhibitor 12.5 μM, replicates A-D
[12] = inhibitor 12.5 μM, replicates A-D, 12.5 µM
[13] = inhibitor 25 μM, replicates A-D
[14] = inhibitor 25 μM, replicates A-D, 25 µM
[15] = inhibitor 50 μM, replicates A-D
[16] = inhibitor 50 μM, replicates A-D, 50 µM
[17] = inhibitor 100 μM, replicates A-D
[18] = inhibitor 100 μM, replicates A-D, 100 µM
[19] = inhibitor 200 μM, replicates A-D
[20] = inhibitor 200 μM, replicates A-D, 200 µM

Row | Substance | pIC50 | fluorescence reading (ACE Inhibitor Assay) [1] | % inhibition (ACE Inhibitor Assay) [2] | fluorescence reading (ACE Inhibitor Assay) [3] | % inhibition (ACE Inhibitor Assay) [4] | fluorescence reading (ACE Inhibitor Assay) [5] | % inhibition (ACE Inhibitor Assay) [6] | fluorescence reading (ACE Inhibitor Assay) [7] | % inhibition (ACE Inhibitor Assay) [8] | fluorescence reading (ACE Inhibitor Assay) [9] | inhibition at 6.25 µM [9] | % inhibition (ACE Inhibitor Assay) [10] | fluorescence reading (ACE Inhibitor Assay) [11] | inhibition at 12.5 µM [11] | % inhibition (ACE Inhibitor Assay) [12] | fluorescence reading (ACE Inhibitor Assay) [13] | inhibition at 25 µM [13] | % inhibition (ACE Inhibitor Assay) [14] | fluorescence reading (ACE Inhibitor Assay) [15] | inhibition at 50 µM [15] | also measured
1 | GAALSPLPEVPP [Peptide S544] | 4.54 | 841511 and 894833 and 882762 and 936430 | 9.4% and 3.63% and 4.93% and −0.88% | 853374 and 881105 and 872351 and 929364 | 8.12% and 5.11% and 6.06% and −0.11% | 864708 and 811879 and 787983 and 930998 | 6.89% and 12.61% and 15.2% and −0.29% | 822128 and 840019 and 799408 and 883161 | 11.5% and 9.56% and 13.96% and 4.89% | 670407 and 719205 and 725919 and 735049 | 27.9% | 22.66% and 21.93% and 20.94% | 668628 and 658367 and 643614 and 684354 | 28.1% | 29.25% and 30.85% and 26.43% | 494831 and 495043 and 522915 and 521311 | 47% | 46.95% and 43.93% and 44.1% | 263679 and 261020 and 262784 and 286592 | 72% | % inhibition (ACE Inhibitor Assay) [16]: 72.3% and 72.12% and 69.54%; fluorescence reading (ACE Inhibitor Assay) [17]: 154967 and 152193 and 156501 and 158918; inhibition at 100 µM [17]: 83.8%; % inhibition (ACE Inhibitor Assay) [18]: 84.1% and 83.63% and 83.37%; fluorescence reading (ACE Inhibitor Assay) [19]: 92239 and 93028 and 95574 and 94363; inhibition at 200 µM [19]: 90.6%; % inhibition (ACE Inhibitor Assay) [20]: 90.51% and 90.23% and 90.34%
2 | LSPLPEVPP [Peptide S546] | 5.46 | 803315 and 773719 and 787391 and 826280 | 14.38% and 12.86% and 8.53% | 719861 and 687713 and 702450 and 763649 | 23.96% and 22.32% and 15.5% | 591636 and 572728 and 566984 and 657580 | 36.77% and 37.41% and 27.32% | 483121 and 472396 and 452574 and 495814 | 47.95% and 50.15% and 45.32% | 308510 and 312423 and 322970 and 336576 | 66.2% | 65.77% and 64.59% and 63.07% | 225714 and 208268 and 221839 and 226385 | 75.4% | 77.32% and 75.86% and 75.35% | 116421 and 119382 and 118514 and 124101 | 87.6% | 87.27% and 87.36% and 86.74% | 69502 and 65379 and 67861 and 73176 | 92.8% | inhibition at 0.39 µM [1]: 11.1%; inhibition at 0.78125 µM [3]: 20.4%; inhibition at 1.5625 µM [5]: 34.7%; inhibition at 3.125 µM [7]: 46.8%; % inhibition (ACE Inhibitor Assay) [16]: 93.28% and 93.01% and 92.41%; fluorescence reading (ACE Inhibitor Assay) [17]: 37664 and 36789 and 37490 and 39445; inhibition at 100 µM [17]: 96.4%; % inhibition (ACE Inhibitor Assay) [18]: 96.47% and 96.39% and 96.17%; fluorescence reading (ACE Inhibitor Assay) [19]: 22822 and 23110 and 24700 and 22511; inhibition at 200 µM [19]: 98%; % inhibition (ACE Inhibitor Assay) [20]: 97.99% and 97.82% and 98.06%
3 | PLPEVPP [Peptide S548, PLPEVPP] | 4.68 | 850082 and 861072 and 990310 and 812986 | 5,85% and 4,63% and −9,77% and 9,98% | 736956 and 848448 and 878121 and 787559 | 18,46% and 6,03% and 2,73% and 12,82% | 672595 and 802519 and 857919 and 773857 | 25,63% and 11,15% and 4,98% and 14,35% | 735840 and 756404 and 788637 and 719509 | 16,29% and 12,7% and 20,4% | 644083 and 676136 and 699343 and 628007 | 28.8% | 25,23% and 22,65% and 30,6% | 668264 and 582524 and 619407 and 572641 | 37.2% | 35,66% and 31,55% and 36,76% | 411233 and 394114 and 413347 and 402465 | 54.8% | 56,66% and 54,52% and 55,73% | 291507 and 326054 and 343249 and 278402 | 68.1% | inhibition at 3.125 µM [7]: 18.6%; % inhibition (ACE Inhibitor Assay) [16]: 64,24% and 62,33% and 69,55%; fluorescence reading (ACE Inhibitor Assay) [17]: 181416 and 194177 and 204171 and 168452; inhibition at 100 µM [17]: 80.4%; % inhibition (ACE Inhibitor Assay) [18]: 78,94% and 77,82% and 81,8%; fluorescence reading (ACE Inhibitor Assay) [19]: 108115 and 108968 and 113955 and 101322; inhibition at 200 µM [19]: 88.5%; % inhibition (ACE Inhibitor Assay) [20]: 88,43% and 87,87% and 89,28%
